Reference: patent US20220354963A1, “EXTRACELLULAR VESICLE LINKED TO MOLECULES AND USES THEREOF” (Codiak BioSciences, Inc., priority 2019, published 2022)

Experiments:
[1] = system: STAT3 mRNA; assay: STAT3 mRNA expression in IL-6 stimulated PANC-1 cells, branched DNA assay; type: cell-based, human; conditions: 5 point DR data
[2] = system: STAT3 mRNA; assay: as above; type: cell-based, human; conditions: for STAT3 Inhibition 2 nM / STAT3 Inhibition 20 nM: 2 point DR data; for IC50: 5 point DR data, Lipofectamine2000 transfection, 48 hr, read-out: STAT3 PANC1 IC50 Prism
Procedure: The ASOs of the present disclosure were tested for their ability to reduce STAT3 mRNA expression in IL-6 stimulated PANC-1 cells. The PANC-1 cells were grown in cell culture media and seeded onto a 96 well plate at a density of 20,000 cells/well. ASOs were tested in two separate cohorts: 2 doses or 5 doses were given to the PANC-1 cells (See TABLE 3) at final concentrations of 20 nM and 2 nM, respectively. The assay used Lipofectamine2000 transfection and a 48 hr treatment cycle, with incubation at 37° C. and 5% C02. Analysis of the mRNA expression was then carried out using a branched DNA assay.

[3] = system: GAPDH; assay: GAPDH inhibition in PANC-1 cells, same assay; type: cell-based, human; conditions: 2 point DR data
Procedure: The PANC-1 cells were grown in cell culture media and seeded onto a 96 well plate at a density of 20,000 cells/well. ASOs were tested in two separate cohorts: 2 doses or 5 doses were given to the PANC-1 cells (See TABLE 3) at final concentrations of 20 nM and 2 nM, respectively. The assay used Lipofectamine2000 transfection and a 48 hr treatment cycle, with incubation at 37° C. and 5% C02. Analysis of the mRNA expression was then carried out using a branched DNA assay.

[4] = system: IL-1β; assay: In vivo peritonitis model, intraperitoneal LPS challenge, serum IL-1β; set-up: species or system mouse; conditions: pre-treatment intraperitoneally 1 hour prior to challenge; 3 hours post-challenge
Procedure: Intraperitoneal LPS challenge induces the production of IL-1β in mice, which can be detected in the systemic circulation 3 hours post-challenge.

Compound | STAT3 Max inihibition 24 nM [1] | STAT3 Inhibition 2 nM [2] | STAT3 Inhibition 20 nM [2] | IC50 [2] [nM] | GAPDH Inhibition 20 nM [3] | induction of IL-1β in the serum of LPS-challenged mice [4]
139 (ACTCCATCTTAATGGGACTC; chemistry not given here) [compound 139] | 72.50 | 52.8 | 83.4 | 4.02 | 10.00 | –
103 (CTCCTGTTGGCTCGATCCAG; chemistry not given here) [compound 103] | 89.93 | 82.5 | 95.8 | 0.465 | 10.00 | –
102 (TTGGCTCGATCCAGGAGTGT; chemistry not given here) [compound 102] | 78.02 | 82.7 | 89.5 | 0.473 | 16.00 | –
133 (GCAGTCGTGTGTAGCGTTTG; chemistry not given here) [compound 133] | 81.73 | 55.9 | 90.7 | 2.24 | 14.00 | –
128 (ACCCAGACGGGCATTCCTGT; chemistry not given here) [compound 128] | 79.56 | 61.1 | 81.1 | 3.56 | 19.00 | –
126 (TGGAATCTGCTTCTCACGTA; chemistry not given here) [compound 126] | 87.71 | 61.4 | 90.7 | 2.78 | 13.00 | –
120 (ATTATCTGAACCCCACTTCG; chemistry not given here) [compound 120] | 87.43 | 62.8 | 93.4 | 2.05 | 12.00 | –
137 (ATCTTAATGGGACTCACGGG; chemistry not given here) [compound 137] | 79.46 | 53.0 | 87.4 | 1.8 | −2.00 | –
131 (AGTCGTGTGTAGCGTTTGTT; chemistry not given here) [compound 131] | 75.20 | 58.9 | 90.7 | 2.83 | 12.00 | –
130 (TGTAGCGTTTGTTGAGGCTC; chemistry not given here) [compound 130] | 72.16 | 59.3 | 80.7 | 1.68 | 13.00 | –
115 (CTGTTGATCGCAGCGAAGAT; chemistry not given here) [compound 115] | 78.99 | 65.2 | 90.8 | 0.796 | 3.00 | –
112 (GCGAAGATCCACACGGCCAT; chemistry not given here) [compound 112] | 86.32 | 70.0 | 91.0 | 1.04 | −25.00 | –
124 (ATAGAGATTCTCGAAAGGTA; chemistry not given here) [compound 124] | 86.46 | 62.6 | 83.3 | 1.6 | 13.00 | –
142 (GGCAGCAGCTCATGATCAGG; chemistry not given here) [compound 142] | 76.10 | 51.7 | 80.0 | 6.76 | 9.00 | –
145 (GTCCTATGTGCTCGTCAAAG; chemistry not given here) [compound 145] | 85.73 | 50.2 | 89.2 | 3.06 | 17.00 | –
134 (CGCAGTCGTGTGTAGCGTTT; chemistry not given here) [compound 134] | 77.94 | 54.3 | 82.8 | 2.13 | 10.00 | –
125 (CACGTACTTTCTGTACTTCT; chemistry not given here) [compound 125] | 81.67 | 61.7 | 85.1 | 2.3 | 14.00 | –
105 (GGATAGTCCTCTAAGTGCAT; chemistry not given here) [compound 105] | 85.61 | 79.4 | 91.6 | 1.47 | 13.00 | –
CC(C)(O)c1coc(S(=O)(=O)NC(=O)Nc2c3c(cc4c2CCC4)CCC3)c1 [MCC950] | – | – | – | – | – | inhibited
135 (ACGTCTTGGTCTTGCCGATG; chemistry not given here) [compound 135] | 78.59 | 53.9 | 84.2 | 1.05 | 4.00 | –
114 (GTTGATCGCAGCGAAGATCC; chemistry not given here) [compound 114] | 84.94 | 66.4 | 87.0 | 0.814 | 10.00 | –
138 (CCATCTTAATGGGACTCACG; chemistry not given here) [compound 138] | 85.33 | 53.0 | 86.8 | 1.31 | 9.00 | –
116 (CTCCTGTTGATCGCAGCGAA; chemistry not given here) [compound 116] | 69.78 | 64.5 | 85.5 | 1.85 | 16.00 | –
107 (TAGCGTGGCTAGATCCACAT; chemistry not given here) [compound 107] | 70.92 | 79.0 | 87.7 | 0.037 | 8.00 | –
